The source of these data is publication PMC11840605, “Crystallographic and Thermodynamic Evidence of Negative Coupling in the Flavin-Dependent Tryptophan Halogenases AbeH and BorH” (ACS Omega, 2025).

Where “and” joins values, the source holds several entries; their conditions need not be identical. Identical values can stand only once. Entries after “also recorded” stand apart in the source; their conditions may differ.

For assay [1], the target named is T1, AbeH (uncultured bacterium, UniProt F6LWA5). As to the kind of experiment: Isothermal titration calorimetry, ligand into AbeH. It is filed as binding, uncultured soil actinomycetes. The protocol:
(§1) ITC experiments were performed using a VP-ITC isothermal titration calorimeter (MicroCal) in 20 mM HEPES pH 7.5, 350 mM NaCl, 1 mM ethylenediamine tetraacetic acid (EDTA) and 15% (v/v) glycerol. Solutions of AbeH, BorH, FAD (Chem-Implex), and Trp (Acros Organics) were prepared in the same buffer and degassed under vacuum at 30 °C for 20 min before loading in the syringe or cell. To analyze formation of binary complexes, AbeH or BorH was placed inside the cell, and ligand (FAD or Trp) was injected. For ternary complex titration, one ligand was preincubated with the macromolecule for 30 min at 30 °C to form binary complexes of AbeH/FAD, AbeH/Trp, BorH/FAD, and BorH/Trp before titrating with the second ligand. To test FADH2 binding to AbeH and BorH, FAD was reduced to FADH2 using sodium dithionite and stored under N2. Formation of FADH2 by sodium dithionite was verified using absorbance and fluorescence spectrophotometry.
(§2) ITC experiments were performed with reference power set to 10 μcal/s and Milli-Q water in the reference cell. All experiments were done with a pretitration delay of 20 min, a 5 min interval between injections, and a filter period of 2 s in high feedback gain mode. All experiments were performed at 310 rpm to mix the components in cell and titrant. All other VP-ITC instrumental parameters were set to default settings. Heats of dilution for all titrants were measured by titrating ligand into buffer for binary complex titrations, and by titrating ligand into a solution containing the other ligand but no protein for ternary complex titration.
1.2 mM FAD (2 μL/1 and 5 μL/19 injections) into 18 μM AbeH (Figure 4A)
0.12 mM FADH2 (2 μL/1 and 15 μL/19 injections) into 7 μM AbeH in the presence of sodium dithionite (Figure 4B)
1.4 mM Trp (3 μL/1 and 10 μL/29 injections) into 43 μM AbeH (Figure S7)
16 mM Trp (2 μL/1 and 10 μL/29 injections) into 18 μM AbeH (Figure 5A)
(§3) Titrations were analyzed by manually integrating each injection, subtracting the heat of dilution, and carrying out nonlinear least-squares fit of the calorimetric binding data to a one-site model using Origin 7.0 (Origin Lab). Trp binding experiments were subtracted by point-by-point heat of dilution, and FAD and FADH2 binding experiments were subtracted using the mean heat of the last three injections. For the Trp binding data, n was fixed to 1 based on expected stoichiometry of 1:1 based on FDH crystal structures and as proposed for lower c-value titrations in the literature.[23],[25],[82] The other parameters were not constrained during fitting.
For orientation: Isothermal titration calorimetry measures the heat released or taken up as one component is titrated into another.

For assay [2], the target named is T2, BorH (uncultured bacterium, UniProt M9QSI0). As to the kind of experiment: Isothermal titration calorimetry, ligand into BorH. It is filed as binding, uncultured soil actinomycetes. The protocol:
as §1, with “Solutions” for “ITC experiments were performed using a VP-ITC isothermal titration calorimeter (MicroCal) in 20 mM HEPES pH 7.5, 350 mM NaCl, 1 mM ethylenediamine tetraacetic acid (EDTA) and 15% (v/v) glycerol. Solutions”
as §2, §3

The target in the next assay is BorF. The following applies: read-out: KD, flavin binding to BorF; cited from earlier work.
In the next assay the target is AbeF. The following applies: read-out: KD, flavin binding to AbeF; cited from earlier work.
The target of assay [3] is T2, BorH. Briefly: In vitro halogenation of aromatic substrates by BorH (with BorF, NADH, NaCl or NaBr; RP-HPLC). The following applies: for Halogenation (chlorination/bromination) of the substrate by BorH, in words: NaCl or NaBr reaction; for BorH bromination compared with chlorination of the substrate, in words: same reaction conditions. It counts as biochemical, uncultured soil actinomycetes. On the procedure:
(§4) To test the ability of BorH and AbeH to chlorinate and brominate other substrates, 100 μL reactions containing 5 μM AbeH or BorH, 10 μM of holo-AbeF or holo-BorF, 100 mM NaCl or NaBr, 2.5 mM NADH, and 0.5 mM substrate in HEPES pH 8.0 were incubated for 12 h at 37 °C with shaking at 230 rpm. The reactions were stopped by heating at 95 °C for 5 min and centrifuged at 12,000g for 5 min. Clarified reaction mixtures were analyzed using RP-HPLC on a Kromasil C18 column (100 Å pore size, 4.6 × 250 mm) mounted on a Waters 2695 HPLC. The gradient was as follows: 0–7.5 min, 5–50% B; 7.5–14 min, 50–100%; 14–25 min, 100% B; 25–40 min 100–5% B with flow rate 0.6 mL/min (Solvent A = H2O/CH3CN 95:5, 0.1% TFA; Solvent B = H2O/CH3CN 5/95, 0.1% TFA). Substrates and products were detected by monitoring UV absorbance at the λmax for each substrate. Product peak fractions were analyzed using ESI-MS on a SYNAPT HDMS mass spectrometer in positive ion mode with leucine enkephalin internal standard.

Assay [4] has as its target T1, AbeH. It is filed as biochemical, uncultured soil actinomycetes. The settings on record: NaCl or NaBr reaction. The protocol:
as §4

For assay [5], the target named is T2, BorH. The settings on record: previously shown; cited from earlier work.

T2 sequence (M9QSI0 1-529): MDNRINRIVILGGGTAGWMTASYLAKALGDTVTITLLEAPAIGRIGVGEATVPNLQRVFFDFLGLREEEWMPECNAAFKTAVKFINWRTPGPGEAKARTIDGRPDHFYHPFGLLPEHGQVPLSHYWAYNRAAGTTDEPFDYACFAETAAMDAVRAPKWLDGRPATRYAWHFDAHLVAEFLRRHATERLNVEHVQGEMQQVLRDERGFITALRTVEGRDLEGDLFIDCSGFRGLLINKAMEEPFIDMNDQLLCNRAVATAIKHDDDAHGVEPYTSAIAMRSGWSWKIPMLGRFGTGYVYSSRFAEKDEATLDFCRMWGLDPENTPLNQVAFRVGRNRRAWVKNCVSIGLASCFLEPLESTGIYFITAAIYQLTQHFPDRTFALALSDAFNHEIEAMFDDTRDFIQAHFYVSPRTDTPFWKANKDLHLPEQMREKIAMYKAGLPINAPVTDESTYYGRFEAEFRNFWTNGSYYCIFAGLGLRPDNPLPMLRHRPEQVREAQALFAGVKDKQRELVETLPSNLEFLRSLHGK
T1 sequence (F6LWA5 entry or part of it): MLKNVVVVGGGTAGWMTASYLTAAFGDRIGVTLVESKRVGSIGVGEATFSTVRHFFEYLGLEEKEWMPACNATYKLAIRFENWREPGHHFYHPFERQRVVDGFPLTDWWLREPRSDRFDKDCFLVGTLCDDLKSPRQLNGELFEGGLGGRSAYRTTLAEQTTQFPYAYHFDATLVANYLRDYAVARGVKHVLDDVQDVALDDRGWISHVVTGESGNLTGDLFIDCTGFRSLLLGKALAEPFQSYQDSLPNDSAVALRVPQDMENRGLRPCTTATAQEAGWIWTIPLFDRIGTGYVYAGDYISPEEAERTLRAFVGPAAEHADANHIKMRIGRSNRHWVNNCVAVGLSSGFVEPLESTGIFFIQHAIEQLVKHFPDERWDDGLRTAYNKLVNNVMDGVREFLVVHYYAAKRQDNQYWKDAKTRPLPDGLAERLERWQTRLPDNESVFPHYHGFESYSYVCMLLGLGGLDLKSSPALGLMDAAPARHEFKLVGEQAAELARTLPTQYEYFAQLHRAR

What is called Kd is the free concentration of one partner at which half of the binding sites on the other are occupied at equilibrium, for simple one-to-one binding. With `Cc1cc2c(cc1C)N(C[C@H](O)[C@H](O)[C@H](O)COP(=O)(O)OP(=O)(O)OC[C@H]1O[C@@H](n3cnc4c(N)ncnc43)[C@H](O)[C@@H]1O)c1[nH]c(=O)[nH]c(=O)c1N2` [FADH2], the dissociation constant (Kd) on AbeH [1] (ITC, read-out: KD, binding to AbeH, ITC) was 100 nM and 120 nM; at BorH [2] (ITC, read-out: KD, binding to BorH, ITC), 200 nM and 210 nM; at BorF, 800 nM; at AbeF, 1500 nM. The “-TDS (-TΔS, ITC, Table S3)” value turned out to be 5.7 kcal/mol at AbeH [1] (cell AbeH) and 15 kcal/mol at BorH [2] (cell BorH). Also, the “DG (ΔG, ITC, Table S3)” value is -9.6 kcal/mol at AbeH [1] (cell AbeH) and -9.2 kcal/mol at BorH [2] (cell BorH). Moreover, the figures for the “DH (ΔH, ITC, Table S3)” value on AbeH [1] (cell AbeH) and on BorH [2] (cell BorH) were -15.3 ± 0.7 kcal/mol and -24.2 ± 1.6 kcal/mol, respectively. Besides, the figures for the “n (ITC, Table S3)” value at AbeH [1] (cell AbeH) and on BorH [2] (cell BorH) were 0.82 ± 0.03 and 0.97 ± 0.05, respectively.
For the compound `Nc1ccc2ncccc2c1` [6-aminoquinoline], at BorH [3], the “Halogenation (chlorination/bromination) of the substrate by BorH, in words” value is listed as “halogenated” and the “BorH bromination compared with chlorination of the substrate, in words” value is recorded as “higher rate of bromination than chlorination”. Moreover, the “Halogenation (chlorination/bromination) of the substrate by AbeH, in words” value on AbeH [4] is “chlorinated and brominated”. Moreover, the “Halogenation of the substrate by BorH, in words” value (“Halogenation of the substrate” for short) at BorH [5] was “halogenate”.
`NC(=O)c1ccccc1N` [Anthranilamide]: the “Halogenation (chlorination/bromination) of the substrate by BorH, in words” value on BorH [3] was “halogenated”. Also, the “Halogenation (chlorination/bromination) of the substrate by AbeH, in words” value at AbeH [4] is “halogenated”. In addition, the “Halogenation of the substrate” value at BorH [5] is “halogenate”.
For the compound `NCCc1c[nH]c2ccccc12` [Tryptamine], the “Halogenation (chlorination/bromination) of the substrate by AbeH, in words” value on AbeH [4] is given as “No activity”. In addition, the “Halogenation of the substrate” value on BorH [5] was “halogenate”.
`O=C(O)CCc1c[nH]c2ccccc12` [3-indolepropionic acid]: at AbeH [4], the “Halogenation (chlorination/bromination) of the substrate by AbeH, in words” value was “halogenated”. For the same compound, the “Halogenation of the substrate” value at BorH [5] is on record as “halogenate”.
Regarding `Nc1ccccc1C(=O)CC(N)C(=O)O` (centres unmarked) [kynurenine], at BorH [5], the “Halogenation of the substrate” value was “halogenate”.
For `Nc1ccc2c(c1)NC(=O)CO2` [6-amino-2h-1,4-benzoxazin-3(4H)-one, 6-amino-2H-1,4-benzoxazin-3(4H)-one], on BorH [3], the “Halogenation (chlorination/bromination) of the substrate by BorH, in words” value is “could halogenate” and the “BorH bromination compared with chlorination of the substrate, in words” value is on record as “higher rate of bromination than chlorination”. Moreover, the “Halogenation (chlorination/bromination) of the substrate by AbeH, in words” value at AbeH [4] was “did not halogenate; also recorded: No activity”.
In the case of `NCCc1c[nH]c2ccc(O)cc12` [Serotonin], the “Halogenation (chlorination/bromination) of the substrate by AbeH, in words” value at AbeH [4] is recorded as “did not halogenate; also recorded: No activity”.
Turning to `c1ccc2[nH]ccc2c1` [Indole], on BorH [3], the “BorH bromination compared with chlorination of the substrate, in words” value was “higher rate of bromination than chlorination”. For the same compound, on AbeH [4], the “Halogenation (chlorination/bromination) of the substrate by AbeH, in words” value was “efficiently chlorinated and brominated”.
Take `N[C@@H](Cc1c[nH]c2ccc(O)cc12)C(=O)O` [5-hydroxytryptophan]: at AbeH [4], the “Halogenation (chlorination/bromination) of the substrate by AbeH, in words” value is on record as “did not halogenate; also recorded: No activity”.
`Nc1ccc2cccnc2c1` [7-aminoquinoline]: the “Halogenation (chlorination/bromination) of the substrate by BorH, in words” value on BorH [3] is listed as “could not halogenate; also recorded: No activity”. On AbeH [4], the “Halogenation (chlorination/bromination) of the substrate by AbeH, in words” value was “chlorinated and brominated”.
Take `N#Cc1ccc2[nH]ccc2c1` [5-cyanoindole]: the “BorH bromination compared with chlorination of the substrate, in words” value at BorH [3] was “higher rate of bromination than chlorination”. Further, the “Halogenation (chlorination/bromination) of the substrate by AbeH, in words” value at AbeH [4] is listed as “did not halogenate; also recorded: No activity”.
